Values of other authors in PMC8672822 (RSC Medicinal Chemistry, 2021).
Like-named read-outs stand apart in the source and are kept apart here. Blank lines part the entries; values can stand above or below the molecule they belong to.

Experiments:
[1] = test system: DC-SIGN; conditions: relative to plate assay
[2] = test system: DC-SIGN
[3] = test system: DC-SIGN+ cells
[4] = in comparison to Man-α-1,2-Man
[5] = test system: DC-SIGN; conditions: monovalent
[6] = test system: peripheral blood mononuclear cells (PBMCs) or bone marrow-derived macrophages (BMDM)
[7] = test system: murine Mincle; conditions: murine isoform
[8] = molecular target: bovine Mincle
[9] = test system: human Mincle; conditions: human isoform
[10] = test system: Langerin
[11] = test system: macrophage
[12] = molecular target: DC-SIGN; conditions: ITC
[13] = molecular target: DC-SIGN; conditions: SPR direct
[14] = test system: Langerin; remark: listed apart in the source
[15] = test system: DC-SIGN; conditions: SPR competition

Molecule: CC(C)OC(=O)c1ccc(-c2ccc(/C=C3\C(=O)N(c4ccc(S(N)(=O)=O)cc4)N=C3C(F)(F)F)o2)cc1 [compound 33]
- decrease in affinity in cellular assay [1]: up to 100 fold

Molecule: COC(=O)[C@H]1C[C@H](OCCN)[C@@H](O[C@H]2O[C@H](CO)[C@@H](O)[C@H](O)[C@@H]2O)C[C@@H]1C(=O)OC [compound 24]
- activity in comparison to Man-α-1,2-Man [3]: three times more active
- resistance towards enzymatic digestion [4]: more resistant

Molecule: NC(=O)[C@H](CCC(=O)O)NC(=O)[C@H]1C[C@@H](O)[C@H](O)[C@H](O)[C@H]1SCCCCSCc1cccc(F)c1 [compound 22]
- IC50 [5]: 3200 µM

Molecule: Cc1cc(O)cc(O)c1C(=O)OC[C@H]1O[C@H](O[C@H]2O[C@H](COC(=O)c3c(C)cc(O)cc3O)[C@@H](O)[C@H](O)[C@H]2O)[C@H](O)[C@@H](O)[C@@H]1O [compound 3, brartemicin]
- Mincle-induced immune activation [6]: no or a less effective Mincle-induced immune activation
- binding [7]: no binding
- Ki [8]: 5.5 µM
- binding [9]: no binding

Molecule: CC(=O)NCCO[C@@H]1O[C@H](CO)[C@@H](O)[C@H](O)[C@H]1NS(=O)(=O)c1ccc(C)cc1 [compound 19]
- increase in binding affinity compared to the reference N-acetyl glucosamine [10]: 13 fold

Molecule: OC[C@H]1O[C@H](O[C@H]2O[C@H](CO)[C@@H](O)[C@H](O)[C@H]2O)[C@H](O)[C@@H](O)[C@@H]1O [trehalose]
- macrophage activation [11]: no effect

Now from value to molecule, other results behind:

- IC50 ([2]; SPR competition): 300 µM
Molecule: [N-]=[N+]=NCCO[C@H]1C[C@H](C(=O)NCc2ccc(CO)cc2)[C@@H](C(=O)NCc2ccc(CO)cc2)C[C@@H]1O[C@H]1O[C@H](CO)[C@@H](O)[C@H](O)[C@@H]1O [compound 25]

- aqueous solubility: improved aqueous solubility
Molecule: NC(=O)c1ccc(CCCC2Nc3ccc(C(=O)N4CCN(c5ncccn5)CC4)cc3NC2=O)cc1 (stereo not shown) [compound 35]

- IC50 ([2]; SPR competitive): 254 µM
- Kd [12]: 171 µM
- Kd [13]: 310 µM
Molecule: [N-]=[N+]=NCCO[C@H]1C[C@H](C(=O)NCc2ccc(CO)cc2)[C@@H](C(=O)NCc2ccc(CO)cc2)C[C@@H]1O[C@H]1O[C@H](CN)[C@@H](O)[C@H](O)[C@@H]1O [compound 26]
- selectivity for DC-SIGN over Langerin [14]: fully selective for DC-SIGN over Langerin

- IC50 ([2]; SPR competitive): 76 µM
- Kd [12]: 52 µM
- Kd [13]: 53 µM
Molecule: NCc1cn([C@@H]2[C@@H](O[C@H]3C[C@H](C(=O)NCc4ccc(CO)cc4)[C@@H](C(=O)NCc4ccc(CO)cc4)C[C@@H]3OCCCl)O[C@H](CO)[C@@H](O)[C@@H]2O)nn1 [compound 27]
- selectivity for DC-SIGN over Langerin [14]: full selectivity against Langerin

- IC50 [15]: 350 µM
Molecule: 2-C-aminomethyl-D-mannose [compound 21]

- aqueous solubility: improved aqueous solubility
Molecule: NS(=O)(=O)c1ccc(CCCC2Nc3ccc(C(=O)N4CCN(c5ccncc5)CC4)cc3NC2=O)cc1 (stereo not shown) [compound 36]
